Results reported in patent US8338619B2, “Crystalline form of the zoledronic acid, a process to obtain it and the pharmaceutical composition comprising it” (Gador S.A., priority 2005, dated 2012).

Experiment: TGA Kinetics Analysis of dehydration (constant heating rate thermogravimetry, ASTM E1641)
Type: physicochemical
Description: In this Example, thermogravimetric analysis (TGA) is used as an analytical methodology to quantify the thermal stability parameters of solid chemicals. The data generated from these measurements is analyzed to obtain Arrhenius kinetic parameters such us activation energy (Ea) and preexponential factor. The activation energies of two different hydrates—zoledronic acid monohydrate and trihydrate—is obtained to analyze the dehydration reaction of these two forms to anhydrous form so that the their relative solid-state thermal stability can be ranked based on their activation energy values.
Thermogravimetric analysis (TGA) is a thermal analysis technique which measures the amount and rate of change on the weight of a material as a function of temperature or time in a controlled atmosphere. TGA measurements are used primarily to determinate the composition of materials and to predict their thermal stability up to elevate temperatures. However, with proper experimental procedures, additional information about the kinetics of decomposition and in-use lifetime predictions can be obtained.
TGA Kinetics Analysis method covers determination of the kinetic parameters, Arrhenius activation energy preexponential factor by thermogravimetry, based on the assumption that the decomposition to obeys first-order kinetics.
This program utilizes data gathered by running a sample at various heating rates. […]

## O=P(O)(O)C(O)(Cn1ccnc1)P(=O)(O)O [Zoledronic acid monohydrate, Zoledronic Acid Monohydrate]
At 50.0 percent of conversion level, TGA at 5, 10 and 20° C./min from 25 to 200° C., dry nitrogen purge, Monohydrate
  Activation energy (dehydration to anhydrous form): 36.33 kcal/mol

## O=P(O)(O)C(O)(Cn1ccnc1)P(=O)(O)O [Zoledronic acid trihydrate, Zoledronic Acid Trihydrate]
Trihydrate vs monohydrate
  solid-state kinetic thermal stability (relative ranking from activation energy): greater than monohydrate form
